“Also recorded” adds a separate entry of the source. Where two headings read alike, the source gives them in different places. Each block holds one molecule with its values, some of them ahead of it.
Tests used:
ENO2 = ENO2 (Homo sapiens, UniProt P09104); experiment: Enolase enzymatic activity and Michaelis-Menten kinetic analysis, ENO2; details: for inhibition kinetics with respect to substrate 2-PGA: SF2312: at IC50
human ENO1 = human ENO1 (Homo sapiens, UniProt P06733); experiment: Enolase enzymatic activity, NADH-linked pyruvate kinase/lactate dehydrogenase fluorescence assay, ENO1
[1] = test system: ENO1 null glioma cells (D423-MG); experiment: Growth inhibition by live imaging (Incucyte) / crystal violet; format: cell-based, human; details: for IC50: Homo sapiens, D-423MG, 72 h, confluence over 3 days, read-out: approximate IC50 for growth inhibition of ENO1 null glioma cells
Experimental: (§1) Cell proliferation of glioma cell lines was assayed either through crystal violet staining or by live-cell confluence measurements with the IncuCyte (Essen BioScience). Growth curves using the IncuCyte were generated by confluence imaging every 4 hours with duplicate replicates with an initial seeding of 1500 cells/well in 96-well plates. At the indicated time point, cells were fixed with 10% formalin and stained with crystal violet. Dye extraction was performed using 10% acetic acid solution, and absorbance was read at 595 nm. Apoptotic cells were counted by staining with YO-PRO®-1 Iodide (491/509, Life Technologies, Y3603). Apoptotic cells become permeable to YO-PRO®-1 while live cells are not stained. Alternatively, Propidium Iodide was employed (Life Technologies) instead of YO-PRO. Total cell number was quantified by Hoechst 33342 (Cat# H3570 Invitrogen). Cells were seeded as 2×10^3 cells/well in 96-well plates and treated in the presence or absence of doxycycline. On the day of apoptosis survey, old media was removed and each well was filled to 100 μl with fresh media. Hoechst and YO-PRO®-1 were mixed in 1:100 PBS and 10 μl of the mixture was added in each well gently without touching the cells for a final dilution of 1:1000 from stock. Plates were then incubated at 37° C. for 2 hours. Image capture and quantification was done by High Content Screening System—Operetta (Perkin Elmer). ATP content was measured with the luciferase/luciferin CellTiter-Glo® assay. Briefly, 100 μl of CellTiter-Glo® assay media was added to 96-well plates containing 100 μl of media and cells. Lysis was achieved by the […] in the buffer and vigorous pipetting, and luminescence was determined using an Omega Luminescence Plate Reader (BMG Labtech). Results were expressed relative to vehicle treated control.
(§2) The inhibitor effects were followed live-cell confluence measurements with the IncuCyte (Essen BioScience) as we described previously (Muller et al., 2012). Growth curves using the IncuCyte were generated by confluence imaging every 2 hours with quadruplicate replicates with and initial seeding of 10^3 cells/well in 96-well plates.
(§3) At the indicated time point (usually 2 weeks), cells were fixed with 10% formalin and stained with 0.1% crystal violet solution for 1 h as described previously (Muller et al., 2012). Dye extraction was performed using 10% acetic acid solution, and absorbance was read at 595 nm.

enolase (ENO1 and ENO2) = experiment: Enolase inhibitory activity in vitro, isoform not distinguished (ENO1 and ENO2); format: biochemical, human
[2] = Stability in cell culture media by proton-decoupled 31P NMR
[3] = Hematocrit / hemolytic anemia after IV administration; details: for hematocrit after treatment (drop from 45%): 100 mg/kg IV for longer than a week; for dose at which mild hemolytic anemia can be observed: as low as
Source text: Erythrocytes are sensitive to disruptions in the glycolytic cycle as glycolysis is the cell's only source of energy in the form of ATP.

[4] = test system: ENO1 deleted glioma cells in neurospheres; experiment: Cell viability in 3 dimensional neurosphere conditions (tetramethylrhodamine); format: cell-based, human
Experimental: The cellular viability studies of 3-dimensional tumospheres was performed by using the vital dye, tetramethylrhomdamine ethyl ester (TMRE). […] For reference, a brightfield picture was also taken.
To more accurately model tumors, glioma cells were grown in 3 dimensional neurosphere conditions. The surface to volume ratio of the neurosphere was considerably smaller than in convention cell culture conditions and as such, compounds with poor cell penetration such as phosphonates have considerably lower efficacy than in conventional cell culture. […] However, under the same conditions, the cell permeable pro-drug, Pom-Hex, was highly toxic to ENO1 deleted glioma cells (FIG. 10B). Cell viability in spheres was monitored using 100 nM of tetramethylrhodamine, which is actively taken up by live but not dead cells.

[5] = test system: ATP levels in D423 ENO1-deleted glioma cells; experiment: ATP content (CellTiter-Glo); format: cell-based, human; details: 8 hours of treatment
Experimental: as §1

[6] = test system: conversion of 13C-glucose to 13C-lactate in D423 ENO1-deleted glioma cells; experiment: 13C-NMR tracing of uniformly labeled 13C-glucose to 13C-lactate; details: 48 hours, 10 mM 13C-uniformly labeled glucose
[7] = test system: VHL deleted kidney cancer cell lines RCC4 and 786-O; experiment: Live growth imaging (Incucyte) of VHL deleted vs VHL rescued kidney cancer cells; format: cell-based, human
Experimental: as §2
VHL is a common event in renal clear cell carcinoma. Deletion of VHL activates the HIF pathway, suppressing respiration and rendering cancer cells highly dependent on glycolysis. As such, efforts have been made to target glycolysis to achieve selective toxicity to VHL deficient kidney cancer. As such, the enolase inhibitor Pom-Hex was tested in VHL deteted kidney cancer cell lines. In two independent VHL deleted kidney cancer cell lines, RCC4 (bottom) and 786-O (top panel), the enolase inhibitor, Pom-Hex, was 4-8 times more toxic to the VHL deleted (upper), compared to isogenic rescued controls, expressing VHL from an ectopic locus (lower panels, italics). As in FIG. 12, growth in response to increasing doses of Pom-Hex was measured by live growth imaging using the Incucyte.

normal human astrocytes = experiment: Sensitivity under conventional growth conditions, normal cells; format: cell-based
Experimental: as §2, §3

[8] = test system: cell lines heterozygously deleted for ENO1; experiment: Sensitivity under conventional growth conditions, ENO1 heterozygous lines; format: cell-based, human
Experimental: as §2, §3

[9] = test system: D423-MG glioma cells (1p36 deletion spanning ENO1); experiment: Intracranial D423-MG glioma tumors tracked by T2 MRI; format: in vivo, Nude mice; details: 10 mg/kg intravenous for 11 days
Experimental: Nude mice were injected with D423-MG glioma cells which carry the 1p36 deletion spanning ENO1. Tumors formed around 30 days post injection and growth was tracked non-invasively by T2 MRI. In the absence of treatment, tumors grew continuously, ultimately killing the animal. The tumor area (right side of the brain) is distinguished from the normal mouse brain by high contrast. MRI measurements were performed in a 4.7 T Biospec USR47/40 (Bruker Biospin MRI, Billerica, Mass.) at the M. D. Anderson small animal imaging facility (SAIF). Briefly, animals were maintained under deep anesthesia with isoflurane with body temperature maintained by a heating blanket. Anesthetized mice were restrained with the head held in a stereotactic holder. Breathing was monitored and synchronized with the instrument. Routine tumor detection was done by T2-weighed imaging. First, a low resolution axial scan is taken to center the field properly, after which a series of high resolution axial and coronal scans are recorded.
Nude mice were injected with D423-MG glioma cells which carry the 1p36 deletion spanning ENO1. Tumors formed around 30 days post injection and growth was tracked non-invasively by T2 MRI. In the absence of treatment, tumors grew continuously, ultimately killing the animal. The tumor area (right side of the brain) was distinguished from the normal mouse brain by high contrast. […]

[10] = test system: ENO1 deleted Glioblastoma cell line, Gli56; experiment: Intracranial Gli56 glioblastoma tumors tracked by T2 MRI; format: in vivo, NUDE immunocompromised mice; details: Pom-SF2312 at 4 MPK
Source text: Animals (NUDE immunocompromised mice) injected intracranially with the ENO1 deleted Glioblastoma cell line, Gli56. After 30 days, tumors became readily visible by MRI (T2, the white hyperintense regions are tumor on the background grey of the normal brain). In the absence of treatment, Gli56 tumors grow continuously (Mouse #1, and Mouse #3, from Day 30 to Day 40). […] The tumors have not recurred after discontinuation of treatment.

Maximum tolerated dose = experiment: Maximum tolerated dose; parameters: species or system NUDE immunocompromised mice; details: mouse, in vivo
[11] = up to 10 mM, lysates of D423 ENO1 and ENO2 expressing cells

Sequence of ENO2 (P09104 whole entry): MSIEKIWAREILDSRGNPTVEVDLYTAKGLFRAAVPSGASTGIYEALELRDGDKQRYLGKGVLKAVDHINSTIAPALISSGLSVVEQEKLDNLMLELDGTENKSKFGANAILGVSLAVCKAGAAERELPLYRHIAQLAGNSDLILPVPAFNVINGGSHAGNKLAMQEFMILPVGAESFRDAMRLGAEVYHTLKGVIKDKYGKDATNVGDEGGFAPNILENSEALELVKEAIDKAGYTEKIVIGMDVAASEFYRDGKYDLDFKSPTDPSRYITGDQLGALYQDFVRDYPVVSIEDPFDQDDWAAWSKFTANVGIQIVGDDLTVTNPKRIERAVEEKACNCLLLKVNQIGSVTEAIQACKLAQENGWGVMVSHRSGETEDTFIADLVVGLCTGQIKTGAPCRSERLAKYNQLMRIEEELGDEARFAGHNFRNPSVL
Sequence of human ENO1 (P06733 whole entry): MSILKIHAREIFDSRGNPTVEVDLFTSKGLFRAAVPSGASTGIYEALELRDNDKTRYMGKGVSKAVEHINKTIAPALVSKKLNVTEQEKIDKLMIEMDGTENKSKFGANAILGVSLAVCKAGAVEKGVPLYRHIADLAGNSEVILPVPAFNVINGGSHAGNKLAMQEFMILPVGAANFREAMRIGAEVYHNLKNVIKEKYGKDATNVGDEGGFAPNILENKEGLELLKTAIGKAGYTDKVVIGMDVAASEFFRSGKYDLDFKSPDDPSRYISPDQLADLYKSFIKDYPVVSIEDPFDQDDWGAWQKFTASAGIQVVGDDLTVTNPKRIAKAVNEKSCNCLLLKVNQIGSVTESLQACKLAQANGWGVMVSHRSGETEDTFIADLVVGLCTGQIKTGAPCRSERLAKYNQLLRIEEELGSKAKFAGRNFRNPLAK

Structure (SMILES): O=C1C(P(=O)(O)O)CCN1O (stereo not shown) [Deoxy-SF2312]
IC50 (ENO2): ~2000 nM
inhibition kinetics with respect to substrate 2-PGA (ENO2): clear competitive kinetics
IC50 (human ENO1): ~2000 nM

Structure (SMILES): CC(=O)OC1CC(P(=O)(OCOC(=O)C(C)(C)C)OCOC(=O)C(C)(C)C)C(=O)N1OC(C)=O (stereo not shown) [Diacetyl-POM-SF2312, (((1,5-diacetoxy-2-oxopyrrolidin-3-yl)phosphoryl)bis(oxy))bis(methylene) bis(2,2-dimethylpropanoate)]
IC50 [1]: ~150 nM

enolase inhibitory activity (enolase (ENO1 and ENO2); [11]): no enolase inhibitory activity
enolase inhibitory activity (enolase (ENO1 and ENO2); up to 10 mM, lysates of D423 ENO1 and ENO2 expressing cells, listed as foscanet): no inhibitory activity was observed
Structure (SMILES): O=C(O)P(=O)(O)O [Foscarnet]

enolase inhibitory activity (enolase (ENO1 and ENO2); [11]): no enolase inhibitory activity
enolase inhibitory activity (enolase (ENO1 and ENO2); up to 10 mM, lysates of D423 ENO1 and ENO2 expressing cells, listed as fosfomycin): no inhibitory activity was observed
Structure (SMILES): C[C@@H]1O[C@@H]1P(=O)(O)O [Fosfomycin]

enolase inhibitory activity (enolase (ENO1 and ENO2); even concentrations of >10,000,000 nM): completely inactive
Structure (SMILES): O=CN(O)CCCP(=O)(O)O [Fosmidomycin]
enolase inhibitory activity (enolase (ENO1 and ENO2); [11]): no enolase inhibitory activity; also recorded: no inhibitory activity was observed

hydrolysis to SF2312 in media ([2]; within 24 hours): did not appreciably hydrolyze
Structure (SMILES): CC(C)(C)C(=O)OCOP(=O)(O)C1CC(O)N(O)C1=O (stereo not shown) [Hemi-Pom-SF2312]

Structure (SMILES): O=C1C(P(=O)(O)O)CCCN1O (stereo not shown) [Hex]
potency against ENO2 versus ENO1 (IC50 lower / activity greater for ENO2) (ENO2; ENO2 over ENO1): approximately 6 fold
Ki for ENO2 compared with ENO1 (ENO2; Lineweaver-Burke / Dixon plots): considerably lower Ki for ENO2 than ENO1
inhibition kinetics with respect to substrate 2-PGA (ENO2): competitive inhibitor
hematocrit after treatment (drop from 45%) [3]: 29%
dose at which mild hemolytic anemia can be observed [3]: 50 mg/kg
toxicity to ENO1 deleted glioma cells in neurosphere conditions [4]: only mildly sensitive

Structure (SMILES): O=C(CP(=O)(O)O)NO [PhAH, phosphonoacetohydroxamate]
IC50 (ENO2): ~20 nM
concentration reducing ATP levels by >40% [5]: > 100 µM
hematocrit after treatment (drop from 45%) [3]: 29%
dose at which mild hemolytic anemia can be observed [3]: 50 mg/kg
IC50 (human ENO1): ~20 nM
concentration sufficient to decrease the ratio of 13C Lactate/13C glucose by 70% [6]: 50 µM

Structure (SMILES): CC(C)(C)C(=O)OCOP(=O)(OCOC(=O)C(C)(C)C)C1CCCN(O)C1=O (stereo not shown) [Pom-Hex]
half-life at 1.5 mM (physchem): 36 h
times more toxic to VHL deleted compared to isogenic rescued controls [7]: 4-8 times
further hydrolysis to the free phosphonate (SF2312, Hex) ([2]; 72 hours of incubation): did not proceed further
time for half of the compound to hydrolyze in media ([2]; DMEM with 10% fetal bovine serum): more than 24 hours
effect on hematocrit ([3]; doses as high as 10 mg/kg IV for up to 1 month): do not cause a statistically significant drop in hematocrit
sensitivity of normal human astrocytes (normal human astrocytes): highly resistant
toxicity to ENO1 deleted glioma cells in neurosphere conditions [4]: highly toxic
fold more potent than Hex ([4]; FIGS. 10A & 10B, ENO1-deleted glioma cells): ≥ 200 fold
sensitivity of cell lines heterozygously deleted for ENO1 [8]: intermediate sensitivity
effect on D423-MG intracranial tumor [9]: completely eradicated the tumor
IC50 [1]: ~35 nM
sensitivity of ENO1 deleted D423 glioma cells ([1]; conventional growth conditions): sensitive to even low nM levels of the inhibitor
IC50 (enolase (ENO1 and ENO2); against ENO1 and ENO2, incubated prior to 5 mM 2-PG, contaminant Hex not ruled out): ~100000 nM
effect on Gli56 intracranial tumor growth [10]: profound tumor regression

Structure (SMILES): CC(C)(C)C(=O)OCOP(=O)(OCOC(=O)C(C)(C)C)C1CC(O)N(O)C1=O (stereo not shown) [Pom-SF2312, (((1,5-dihydroxy-2-oxopyrrolidin-3-yl)phosphoryl)bis(oxy))bis(methylene)bis(2,2-dimethylpropanoate)]
half-life at 1.5 mM (physchem; cell culture media): 8 h
IC50 [1]: < 75 nM
maximum tolerated dose (Maximum tolerated dose): 4 MPK (mg/kg)

Source: US10363261B2, “Enolase inhibitors and methods of treatment therewith” (Board of Regents, The University of Texas System, priority 2015, dated 2019)
